# Reference: patent US5366726A (priority 1992, dated 1994)
# Like-named read-outs stand apart in the source and are kept apart here.
# Columns and labels:
# [1] = cited from earlier work
# Pneumocystis carinii [2] = type: in vivo, human
# Text: The initial diagnosis of P. carinii pneumonia was based on finding the organism in induced sputum or bronchoalveolar lavage specimens.
# Treatment was as described in Example 3.
# Chest radiographs and arterial blood gas tensions were obtained as clinically indicated.
# Pneumocystis carinii [3] = type: in vivo, human; remark: listed apart in the source
# Pneumocystis carinii [4] = details: cited from earlier work; for Vital Capacity: percent predicted
# [5] = Example 2: pentamidine in BAL supernatant, BAL sediment and serum (HPLC); type: in vivo, human
# Text: The patients were divided into two groups.
# [6] = set-up: species or system human; details: in vivo
# Text: Five patients who developed PCP within 28 days were not evaluated. One hundred (66%) of the patients were concurrently receiving AZT, and 42 (28%) had experienced one prior episode of PCP.
# [7] = Example 8: adverse effects in the clinical trial; type: in vivo, human
# Text: Participants were enrolled in one of 13 treatment centers located in the San Francisco Bay area.
# Each treatment was supervised by a respiratory therapist who noted any immediate adverse effects and administered a bronchodilator if needed for severe coughing or bronchospasm.
# Participants were questioned at baseline and at each visit about concomitant medications, intercurrent illnesses, and symptoms. Information from participants, their physicians, hospital records, microbiology departments, and county health departments were used to determine status.
# [8] = Example 3: serum pentamidine concentrations; type: in vivo; details: human, inhaled or intranasal, 300 mg, serum pentamidine concentration at end of therapy, 2 patients
# [9] = human, in vivo
# [10] = Respirgard or UltraVent, any dose or duration
smiles,measurement,setting,value
"N=C(N)c1ccc(OCCCCCOc2ccc(C(=N)N)cc2)cc1 [pentamidine, p,p'-(pentamethylenedioxy)dibenzamidine]",less common adverse effects,"[1]; human, in vivo",cardiac arrhythmias and pancreatitis
same,local reactions at site of intramuscular injection,[1]; intramuscular,"Pain, swelling and sterile abscesses"
same,"generalized or local reactions, intravenous",[1]; intravenous,thrombophlebitis and generalized or localized urticarial eruptions
same,hypoglycemia,[1]; parenteral,Hypoglycemia has also been reported
same,impaired renal function,[1]; parenteral,about 25%
same,other common adverse reactions,[1]; parenteral,"elevation of liver enzymes, hematologic disturbances with neutropenia and thrombocytopenia, fever, hypocalcemia, and hallucinations"
same,hypotension,[1]; single intramuscular dose or rapid intravenous infusion,Severe hypotension
same,"hypoxia, fever, dyspnea",Pneumocystis carinii [2]; 10 patients,"none of the patients were hypoxic or febrile, all had improvement in dyspnea"
same,completion of therapy,"Pneumocystis carinii [2]; 10 patients, 4 to 17 days",All patients successfully completed therapy
same,chest radiographs,Pneumocystis carinii [2]; current or subsequent,roentrographic improvement of infiltrates
same,"dyspnea, respiratory rate and fever",Pneumocystis carinii [3]; all 13 patients treated successfully,marked reduction
same,patients who died of progressive respiratory failure,"Pneumocystis carinii [3]; concomitant tuberculosis, changed to TMP-SMX day 7",One
same,"clinical improvement during second week, patients",Pneumocystis carinii [3]; in vivo,3 patients
same,"clinical improvement in first week, patients",Pneumocystis carinii [3]; in vivo,Ten
same,Successful Treatment w/ Change,Pneumocystis carinii [3]; n = 15,14(93) n (%)
same,Successful Treatment w/o Change,Pneumocystis carinii [3]; n = 15,13(86) n (%)
same,"worsened infiltrates at one week with subsequent improvement, patients",Pneumocystis carinii [3]; of 13,Five
same,"worsened or no improvement for first two weeks, then improvement, patients",Pneumocystis carinii [3]; of 13,4 patients
same,"radiographic improvement beginning by second week, patients",Pneumocystis carinii [3]; of 13 patients treated successfully,4
same,average hospital stay,Pneumocystis carinii [3]; patients treated successfully,8 days
same,PaO2,"Pneumocystis carinii [4]; post therapy, TMP-DPS only 8 patients tested",87.2 torr
same,DLCO,Pneumocystis carinii [4]; post therapy,62
same,Vital Capacity,Pneumocystis carinii [4]; post therapy,80
same,DLCO,Pneumocystis carinii [4]; pre therapy,59.0
same,PaO2,Pneumocystis carinii [4]; pre therapy,69.3 torr
same,Vital Capacity,Pneumocystis carinii [4]; pre therapy,70
same,"BAL sediment concentration, aerosol vs intravenous group",[5]; 18-24 h,10-100 fold
same,"mean BAL supernatant (aerosol) vs sediment (intravenous) concentration, factor",[5]; 18-24 h,more than 2
same,systemic absorption,[5]; after aerosol administration,Little or no systemic absorption
same,"prophylaxis discontinued due to bronchospasm, patients",[6],one
same,"Pneumothorax, Known etiology",[7]; 30 mg,5
same,"Pneumothorax, Spontaneous",[7]; 30 mg,2
same,Significant Cough,[7]; 30 mg,31%
same,Treatments stopped due to cough,[7]; 30 mg,0%
same,Used Bronchodilators,[7]; 30 mg,7.5%
same,"Withdrew, Adverse Effects",[7]; 30 mg,2
same,"Pneumothorax, Known etiology",[7]; 150 mg,5
same,"Pneumothorax, Spontaneous",[7]; 150 mg,3
same,Significant Cough,[7]; 150 mg,40%
same,Treatments stopped due to cough,[7]; 150 mg,0.2%
same,Used Bronchodilators,[7]; 150 mg,14%
same,"Withdrew, Adverse Effects",[7]; 150 mg,11
same,"Pneumothorax, Known etiology",[7]; 300 mg,3
same,"Pneumothorax, Spontaneous",[7]; 300 mg,3
same,Significant Cough,[7]; 300 mg,38%
same,Treatments stopped due to cough,[7]; 300 mg,0.7%
same,Used Bronchodilators,[7]; 300 mg,20%
same,"Withdrew, Adverse Effects",[7]; 300 mg,10
same,significant coughing during a treatment,[7]; all participants,36%
same,wheezing during a treatment,[7]; all participants,11%
same,participants who used bronchodilators during treatment,"[7]; human, in vivo",Fourteen
same,"rash, participants","[7]; human, in vivo",One
same,spontaneous pneumothorax,"[7]; human, in vivo",Eight
same,"stopped due to interstitial pneumonitis, participants","[7]; human, in vivo",One
same,treatments ended by cough,"[7]; human, in vivo",0.3%
same,treatments interrupted by cough,"[7]; human, in vivo",0.5%
same,"withdrew after pneumothoraces, participants","[7]; human, in vivo",four
same,concentration at 504 h,[8],22 ng/mL
same,only frequent adverse effect observed clinically,[9],transient airway irritation
same,dose remaining in the nebulizer after inhalation,[10],approximately one third
